Results as given in patent US20240366624A1, “METHODS AND COMPOSITIONS FOR TREATING THROMBOTIC DISEASE” (Washington University, priority 2023, published 2024).
Entries after “also recorded” stand apart in the source; their conditions may differ.

Legend:
Ero1α-null platelets = test: Platelet aggregation, Ero1α-null platelets; type: cell-based, mouse
Description: FIG. 7(A-L) is an exemplary embodiment of crucial intracellular ERO1α (endoplasmic reticulum oxidoreductase 1a) for platelet activation, aggregation, and thrombus formation in accordance with the present disclosure. FIG. 7A: Ex vivo platelet thrombus formation in a flow chamber assay. Adherent and aggregated platelets were stained with rhodamine-conjugated phalloidin and imaged by confocal microscopy. Representative images (bar, 10 μm). Surface coverage and thrombus volume were measured (mean±SD, n=4). FIG. 7(B-E): Aggregation and ATP secretion of wild type (WT) and Ero1α-null platelets were induced by 0.025 U/mL thrombin, 0.05 μg/mL CRP (collagen-related peptide), 0.5 μM A23187, or 2.5 μM ADP. Platelet aggregation (i) and ATP secretion (ii). FIG. 7F: Ero1α-null platelets were pretreated with 50 μg/mL wtERO1α or wtPDI and then with 0.025 U/mL thrombin. Quantification graphs of aggregation and ATP secretion are presented as the mean±SD (n=3-4). FIG. 7G and FIG. 7H: P-selectin exposure and αIIbβ3 integrin activation of WT and Ero1α-null platelets were analyzed by flow cytometry. The data are presented as the geometric mean fluorescence intensity (MFI) value (mean±SD, n=3-4). FIG. 7I: WT and Ero1α-null platelets were treated with or without 0.025 U/mL thrombin for 1 minute in an aggregometer. The lysates were immunoprecipitated with control IgG or anti-β3 antibodies and subjected to immunoblotting with antibodies against talin1 or β3 and densitometric analysis (mean±SD, n=3). FIG. 7J: WT and Ero1α-null platelets were treated with or without 0.025 U/mL thrombin, followed by transmission electron microscopy. The original magnification was 34 800, and the extension was 313 000. Bar, 500 nm. FIG. 7K and FIG. 7L: Intravital microscopy was performed to determine the effect of 15E9 (1-3 μg/g body weight [BW]) and a blocking anti-PDI (protein disulfide isomerase) antibody (BD34, 3 μg/g BW) on platelet thrombus formation and fibrin generation at the site of laser-induced cremaster arteriolar injury (n=27-40 arterioles in 6 mice per group). The n indicates biological replicates. P values determined by unpaired Student t test (FIG. 7(A-E) and FIG. 7(G-1)), ANOVA and Dunnett test (FIG. 7F), or Mann-Whitney U test (FIG. 7K and FIG. 7L).
FIG. 9(A-C) is an exemplary embodiment of EN460 inhibiting thrombin-induced aggregation of mouse and human platelets in accordance with the present disclosure. […] P values determined by ANOVA and Dunnett's test (FIG. 9(A-B)) or Student's t-test (FIG. 9C).
FIG. 10(A-E) is an exemplary embodiment of 15E9 not affecting platelet activation and aggregation in accordance with the present disclosure. […] P values determined by unpaired Student's t-test (vs. mIgG1). […]

mouse platelets = test: Ca2+ mobilization (FLIPR), mouse platelets; type: cell-based
Description: FIG. 15 is an exemplary embodiment of EN460 affecting the basal level of cytosolic Ca2+ and inhibiting Ca2+ mobilization in accordance with the present disclosure. WT mouse platelets were pretreated with vehicle (0.1% DMSO) or 5-10 μM EN460, followed by measuring Ca2+ release and influx after stimulation with 2 μM A23187 and the addition of 1 mM CaCl2). The data represent the mean±SD (n=3). P values determined by ANOVA and Dunnett's test.
Ca^2+ mobilization was measured as described previously. WT control and Ero1α-null platelets (1×10^8/mL) were suspended in HEPES-Tyrode buffer, pH 7.4. Cells were incubated with a Ca^2+ dye (FLIPR Ca^2+5 assay kit; Molecular Devices) for 30 minutes at 37° C. in the dark, followed by stimulation with thrombin (0.1 U/mL), A23187 (2 μM) or thapsigargin (10-20 μM). After measuring Ca^2+ release, 1 mM CaCl2) was immediately added to assess Ca^2+ influx. In other experiments, Ca^2+ dye-labeled human and WT mouse platelets were incubated with a vehicle or an inhibitor for 10 minutes at 37° C. Cytosolic Ca^2+ levels were measured using a FlexStation3 microplate reader with an excitation wavelength of 485 nm and an emission wavelength of 525 nm. Ca^2+ mobilization was quantified by the area under the curve and expressed as a relative fluorescence unit.

Row | SMILES | Ero1α-null platelet aggregation (Ero1α-null platelets; 3 μM) | Ero1α-null platelet aggregation (Ero1α-null platelets; 3 to 10 μM) | Ca2+ release and influx (mouse platelets; A23187 stimulation, 5-10 μM) | basal level of cytosolic Ca2+ (mouse platelets; concentration-dependent, 5-10 μM, 3 to 10 μM) | Ero1α-null platelet aggregation (Ero1α-null platelets; 10 μM / up to 10 μM) | Ca2+ release and influx (mouse platelets; mouse platelets, thrombin or A23187)
1 | O=C(O)c1cc(N2N=C(C(F)(F)F)/C(=C/c3ccc(-c4ccccc4)o3)C2=O)ccc1Cl [EN460] | abolished; also recorded: completely blocked | significantly inhibited | diminished | increased | – | –
2 | O=C(CSc1nc(O)cc(O)n1)N1c2ccccc2Sc2ccccc21 [B12-5] | – | – | – | – | without affecting; also recorded: did not show an additional effect | dose dependently inhibited
